Measurements published in patent US3969530A, “4-Hydroxy-3,5-di-alkyl-phenyl-propionic acid composition suitable as lipid lowering and anti-diabetic agents” (Hoechst Aktiengesellschaft, priority 1972, dated 1976).

Tests used:
in vivo = settings: mouse, po, male mice
[1] = test system: serum lipid concentration; assay: Dietetic-medicamentous hyperlipemia (hypercholesteremia) of male rats (Table 2); type: in vivo; settings: 100 mg/kg/day, 8 doses, esophagal sound; hyperlipemic diet
Text: 2. Dietetic-medicamentous hypercholesteremia of male rats
All the animals were fed with a diet food containing 2% of cholesterol, 2% of sodium cholate, 0.3% of methyl-thio-uracil, 20% of coco fat and 44% of cane sugar. The serum lipid concentration of the animals treated with the cited compounds was compared to that of an untreated control group being on the same diet which causes the serum cholesteral concentration to rise within one week to about 10 times the initial value, that of the serum triglycerides to 3 times and that of the phospholipids in the serum to 4 times the initial value. The lipid phosphorus was determined according to the method of Messrs. Boehringer Mannheim W. Germany. At the same time as the diet was offered the cited compounds were administered once a day to groups of rats, each containing 10 animals, over a period of 8 days by means of an esophagal sound. The change in percentage in the serum lipid concentration as compared to the control group (diet without active substance) is indicated in Table 2.

serum lipid values = assay: Reduction of serum lipid values in normolipemic rats (Table 1); type: in vivo, male rats; settings: 8 doses; for Change in percentage of serum cholesterol, column A / Change in percentage of serum triglyceride, column A: A: referred to the initial value of the treated group; for Change in percentage of serum cholesterol, column B / Change in percentage of serum triglyceride, column B: B: referred to untreated control group
Protocol: 1. Male rats having a normal serum lipid content were being treated for eight days with different daily doses mentioned in Table 1. The values given in that Table stand for a change in the serum concentrations of certain lipid classes.
The doses were administered per os by means of an esophagal sound. Generally, prior to and after the treatment, blood samples were taken and the concentration of cholesterol in the serum was determined according to the method of Lauber and Richterich and that of triglycerides according to the method of Eggstein and Kreutz. In the examples of the following Table 1, the changes in the serum lipid values due to the treatment with the substances of the invention are defined as follows:
a. The changes in percent in the final value of the treated group, referred to the initial value of the treated group, the initial value being 100 per cent, and
b. the change in the final value of the treated group, referred to the final value of an accompanying untreated control group, the untreated group's value being defined as 100 %. Thus, the value given in columns A is the change in percentage referred to the initial value, the value given in columns B is the change in percentage of the treated group, referred to the untreated control group.

blood sugar level [2] = assay: Blood sugar level in male rats fed fructose doses; type: in vivo; settings: 100 mg/kg/day, 3 days pretreatment, 24 hours after the last administration; fructose doses per os
Protocol: (§1) The hypoglycemic activity had been established as follows, the blood sugar level having been determined by means of an autoanalyzer:
In the case of male rats having been feed fructose doses per os and pretreated for 3 days with 100 mg/kg/day of the same compound, the blood sugar level was lowered by -17% 24 hours after the last administration.

blood sugar level [3] = assay: Blood sugar level in alloxan-diabetic male rats; type: in vivo; settings: 100 mg/kg/day per os, 8 days, 20 hours after the last administration, vs untreated group; insulin-substituted
Protocol: as §1
1. On alloxan-diabetic male rats substituted with insulin before the beginning of the test, that were offered food ad libitum, 100 mg/kg/day of 4-hydroxy-3,5-di-t.-butyl-phenylpropionic acid n-octadecyl ester administered per os once a day during 8 successive days lowered the blood sugar level 20 hours after the last administration by -18% as compared with an untreated group.

blood sugar level [4] = assay: Tolerance test with oral glucose in fasted male rats; type: in vivo
Protocol: as §1
2. In the tolerance test with glucose doses administered per os to male rats that had fasted for 22 hours and that were administered 19 and 3 hours before the glucose administration (1g/kg) per os 100 mg/kg of the test preparation, 4-hydroxy-3,5-di-t.-butyl-phenyl-propionic acid n-octadecyl ester caused a lowering of the blood sugar level by -21% 3 hours after being fed with glucose.

Row | SMILES | LD50 (in vivo) | Change in percentage of serum cholesterol referred to the untreated group [1] | Change in percentage of serum cholesterol, column A (serum lipid values; 30 mg/kg/day p.o.) | Change in percentage of serum triglyceride, column A (serum lipid values; 30 mg/kg/day p.o.) | Change in percentage of serum cholesterol, column B (serum lipid values; 30 mg/kg/day p.o.) | Change in percentage of serum triglyceride, column B (serum lipid values; 30 mg/kg/day p.o.) | Change in percentage of serum triglyceride, column A (serum lipid values; 10 mg/kg/day p.o.) | Change in percentage of serum triglyceride, column B (serum lipid values; 10 mg/kg/day p.o.) | Change in percentage of serum triglyceride, column A (serum lipid values; 100 mg/kg/day p.o.) | Change in percentage of serum cholesterol, column B (serum lipid values; 100 mg/kg/day p.o.) | Change in percentage of serum triglyceride, column B (serum lipid values; 100 mg/kg/day p.o.) | lowering of the blood sugar level (blood sugar level [2]) | lowering of the blood sugar level (blood sugar level [3]) | lowering of the blood sugar level (blood sugar level [4]; 100 mg/kg per os 19 and 3 hours before glucose (1g/kg), 3 hours after glucose, fasted 22 hours) | lowering of the blood sugar level compared with phenformin (blood sugar level [4]; 100 mg/kg per os, comparison preparation phenformin) | Change in percentage of serum cholesterol, column A (serum lipid values; 100 mg/kg/day p.o.)
1 | CCOC(=O)C(C)(C)Oc1ccc(Cl)cc1 [Clofibrat, reference compound] | 2000 to 2500 mg/kg | 0% | -7% | +4% | -7% | -13% | – | – | – | – | – | – | – | – | – | –
2 | CC(C)(C)c1cc(CCC(=O)O)cc(C(C)(C)C)c1O [Example 2, 4-hydroxy-3,5-di-t.-butyl-phenyl-propionic acid] | – | – | – | -23% | – | -38% | -21% | -26% | -32% | -12% | -38% | – | – | – | – | –
3 | CCCCCCCCCCCCCCCCCCOC(=O)CCc1cc(C(C)(C)C)c(O)c(C(C)(C)C)c1 [Example 3, 4-hydroxy-3,5-di-t.-butyl-phenyl-propionic acid-n-octadecyl ester] | 8000 mg/kg | – | – | – | – | -25% | – | – | -33% | – | -16% | -17% | -18% | -21% | in the same order of magnitude as that obtained with the comparison preparation phenformin | –
4 | COC(=O)CCc1cc(C(C)(C)C)c(O)c(C(C)(C)C)c1 [Example 5, 4-hydroxy-3,5-di-t.-butylphenyl-propionic acid methyl ester] | – | – | – | – | – | -42% | – | -3% | -60% | – | -71% | – | – | – | – | -3%
5 | CCCCOC(=O)CCc1cc(C(C)(C)C)c(O)c(C(C)(C)C)c1 [Example 6, 4-hydroxy-3,5-di-t.-butylphenyl-propionic acid-n-butyl ester] | – | – | – | – | – | -27% | – | -17% | -54% | – | -58% | – | – | – | – | -10%
6 | CC(C)(C)c1cc(CCC(=O)OCC(COC(=O)CCc2cc(C(C)(C)C)c(O)c(C(C)(C)C)c2)(COC(=O)CCc2cc(C(C)(C)C)c(O)c(C(C)(C)C)c2)COC(=O)CCc2cc(C(C)(C)C)c(O)c(C(C)(C)C)c2)cc(C(C)(C)C)c1O [Example 7, Tetra-(4-hydroxy-3,5-di-t.-butylphenyl-propionic acid)-pentaerythritol ester] | – | – | – | – | – | -27% | – | – | – | -7% | -17% | – | – | – | – | -5%
